Measured values published in patent US20090209638A1, “TREATMENT FOR DEPRESSIVE DISORDERS” (priority 2006, published 2009).

Experiments:
Mice = assay: Mouse Forced Swim Test; type: in vivo
Experimental: Protocol: Animals were maintained on a 12:12 LD cycle with lights on at 0600 h. Mice were placed into the testing room at least 1 h prior to the start of the test. Vehicle, amitriptyline and MA-1 were administered under one of three conditions: A) acute treatment, animals dosed 30 minutes prior to testing; B) 4 day subchronic AM treatment, with dosing occurring during the early morning period (0900-1100 h), with the final dose occurring 30 min prior to testing; and C) subchronic PM treatment with dosing occurring during the evening period (1730-1800 h, right before lights off), and the forced swim test took place the following morning. Animals were tested in the forced swim test using a modification of the protocol originally described by Porsolt et al. (1978). Mice were placed into 1 L beakers (KIMAX #14005) filled with 800 ml of water (20-22° C.) for a 7 min swim period. Animals were only scored for the last 5 minutes of the test and were assigned either a “0” if they were actively swimming or “1” if they were immobile, except for small movements needed to keep afloat. During the 5 minute scoring period, there are ten 30 sec intervals scored for a total possible score of 0-10 for each mouse. Data was reported as median (interquartile range). Each study was run independently with separate groups of naive mice. Data were analyzed using Statview (SAS, Cary, N.C.) with a Kruskal-Wallis analysis, followed by Mann-Whitney U-test with the significance level set at p<0.05.

Rats [1] = assay: Rat Forced Swim Test (behavioral despair test); type: in vivo; details: for decrease in immobility time: dark phase
Experimental: Protocol: Animals were tested in the forced swim test using the protocol originally described by Porsolt et al (Eur. J. Pharmacol., 47, 379-391,1978). Rats were individually placed in a cylinder (Height=40 cm, Diameter=20 cm) containing 13 cm water (25° C.) for 15 minutes on the first day of the experiment (Session 1) and were then put back in the water 24 hours later for a 5 minute test (Session 2). The duration of immobility during the 5 minute test was measured. Six rats were studied per group. The test was performed blind. Session 1 and Session 2 were performed either during the light cycle, i.e. between 2.5 and 5.5 hours after lights-on, or during the dark cycle, i.e. between 2.5 and 5.5 hours after lights-off. The tests during the light cycle were therefore performed between 9:30 am and 12:30 pm, whereas the tests during the dark cycle, because of the light cycle shift, were performed between 14:30 pm and 17:30 pm.
To permit the 2 phases of the experiment (light phase and dark phase) to be performed on the same day by the same laboratory technician, the animals to be tested during the dark phase were submitted to a light cycle shift 12 days prior to the first session of the forced swim test whereby the light/dark cycle was advanced 7 hours (lights-on: 0:00 am, lights-off: 12:00 pm). The 12-day period was estimated to be sufficient for the dark-cycle animals to adjust to the shift. To habituate the rats to the light cycle shift, the dark-cycle animals were submitted to the shift 12 days prior to Session 1. To ensure otherwise similar conditions between the light-cycle and dark-cycle animals, all animals to be used in the experiment were from the same delivery batch and were placed in their experimental living cages at the same time, i.e. 12 days before Session 1.
Testing during the light phase was performed under normal laboratory illumination, and testing during the dark phase was performed under infrared illumination. MA-1, agomelatine, and melatonin were evaluated at 2 oral (p.o.) doses each, administered twice (24 hours and 1 hour before Session 2). The first administration was given immediately after Session 1. Imipramine (64 mg/kg p.o.), administered twice under the same experimental conditions, was used as reference substance.

cerebellar cGMP = assay: Stress-induced cerebellar cGMP elevation; type: in vivo, Rats; details: for activity in the stress-induced cGMP assay: data not shown, levels similar to what was observed for MA-1
Experimental: Protocol: Animals were placed into a shock chamber with a steel grid floor and shocked at 1 mA for 10 seconds. One minute following the stressor, the animals were placed into a plastic restraint tube and sacrificed by microwave irradiation (1.8 sec at 3.5 kW). The cerebellum was rapidly removed, snap frozen, and stored at −80° C. prior to the cGMP assay. Non-stressed animals were taken directly from their cages and sacrificed by microwave irradiation and tissues were processed in a similar manner. Drug dosing was performed 30-60 min prior to foot-shock stress. For the cGMP assay, the tissue was homogenized in 2 ml of 1% perchloric acid using a Brinkman Polytron at setting #5 for ˜15 sec each and placed on ice until all samples were homogenized. Samples were then placed in an 85C water bath for 5 min, centrifuged at 2500G for 15 min, and ˜0.5 ml of the supernatant was collected for analysis. Supernatants were diluted 1:20 in sodium acetate buffer according to the directions of the manufacturer of the 1251-cGMP flashplates. Diluted samples were incubated overnight in flashplate wells with 1251-cGMP, assayed on a gamma-counter plate reader, and converted to pmol cGMP/mg tissue using a standard curve generated in the same experiment.

Rats [2] = assay: Modified forced swim test in rats (study not reported); type: in vivo, rat; details: 5 mg/kg and 10 mg/kg
Solubility of MA-1 = type: physicochemical
[3] = biological target: Melatonin-1 (MT1) receptor (Homo sapiens, UniProt P48039); details: cited from earlier work
Chain of Melatonin-1 (MT1) receptor (P48039 whole entry): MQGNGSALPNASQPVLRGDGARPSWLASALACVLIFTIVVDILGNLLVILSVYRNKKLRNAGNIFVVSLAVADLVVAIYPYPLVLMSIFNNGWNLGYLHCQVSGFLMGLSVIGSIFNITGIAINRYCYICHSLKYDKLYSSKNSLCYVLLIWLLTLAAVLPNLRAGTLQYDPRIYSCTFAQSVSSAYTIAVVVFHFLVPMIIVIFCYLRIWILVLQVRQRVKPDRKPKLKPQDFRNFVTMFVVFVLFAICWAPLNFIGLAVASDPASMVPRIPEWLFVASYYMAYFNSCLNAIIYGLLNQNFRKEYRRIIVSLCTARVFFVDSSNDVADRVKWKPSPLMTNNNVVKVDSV

[4] = biological target: T1, Melatonin-2 (MT2) receptor (Homo sapiens, UniProt P49286); details: cited from earlier work
T1 sequence (P49286 1-362): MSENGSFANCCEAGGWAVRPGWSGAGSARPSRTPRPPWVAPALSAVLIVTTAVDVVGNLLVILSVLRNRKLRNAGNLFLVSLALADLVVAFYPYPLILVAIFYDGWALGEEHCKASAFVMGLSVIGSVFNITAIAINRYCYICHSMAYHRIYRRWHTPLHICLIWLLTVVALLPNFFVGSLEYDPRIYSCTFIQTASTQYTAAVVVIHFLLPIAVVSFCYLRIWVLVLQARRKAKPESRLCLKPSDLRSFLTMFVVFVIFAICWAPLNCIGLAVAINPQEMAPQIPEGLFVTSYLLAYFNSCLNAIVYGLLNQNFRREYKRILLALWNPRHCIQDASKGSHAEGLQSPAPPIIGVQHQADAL

[5] = condition A: acute treatment, testing 30 minute post-dose
[6] = condition B: 4-day sub-chronic AM dosing, testing 30 minutes following final dose
[7] = condition C: 4-day sub-chronic PM dosing, testing the following morning
[8] = dark cycle, 64 mg/kg p.o. −24 h and −60 min
[9] = light cycle, 64 mg/kg p.o. −24 h and −60 min
[10] = dark cycle, 1 mg/kg p.o. −24 h and −60 min
[11] = dark cycle, 10 mg/kg p.o. −24 h and −60 min
[12] = light cycle, 1 mg/kg p.o. −24 h and −60 min
[13] = light cycle, 10 mg/kg p.o. −24 h and −60 min
[14] = dark cycle, 50 mg/kg p.o. −24 h and −60 min
[15] = light cycle, 50 mg/kg p.o. −24 h and −60 min

Compound	activity in mouse forced swim model (Mice; [5])	activity in mouse forced swim model (Mice; [6])	activity in mouse forced swim model (Mice; [7])	DURATION OF IMMOBILITY % change from control (Rats [1]; [11]) [%]	DURATION OF IMMOBILITY mean ± s.e.m. (Rats [1]; [11]) [s]	decrease in immobility time (Rats [1]; 10 mg/kg) [%]	DURATION OF IMMOBILITY % change from control (Rats [1]; [13]) [%]	DURATION OF IMMOBILITY mean ± s.e.m. (Rats [1]; [13])	activity in the stress-induced cGMP assay (cerebellar cGMP)	DURATION OF IMMOBILITY % change from control (Rats [1]; [14]) [%]	DURATION OF IMMOBILITY mean ± s.e.m. (Rats [1]; [14]) [s]	DURATION OF IMMOBILITY % change from control (Rats [1]; [15])	DURATION OF IMMOBILITY mean ± s.e.m. (Rats [1]; [15]) [NS s]	further results
CN(C)CCC=C1c2ccccc2CCc2ccccc21 [Amitriptyline]	active	active	did not show activity											
CN(C)CCCN1c2ccccc2CCc2ccccc21 [Imipramine]														DURATION OF IMMOBILITY % change from control (Rats [1]; [8]): −70%; DURATION OF IMMOBILITY mean ± s.e.m. (Rats [1]; [8]): 63.0 ± 11.1 s; DURATION OF IMMOBILITY % change from control (Rats [1]; [9]): −71%; DURATION OF IMMOBILITY mean ± s.e.m. (Rats [1]; [9]): 49.5 ± 10.6 s
CCC(=O)NC[C@@H]1C[C@H]1c1cccc2c1CCO2 [MA-1, (1R-trans)-N-[[2-(2,3-dihydro-4-benzofuranyl)cyclopropyl]methyl]propanamide]	did not demonstrate activity	did not demonstrate activity	did not demonstrate activity	−41	124.8 ± 18.8	41	−25	126.3 ± 26.9 NS s						attenuation of shock-induced increase in cerebellar cGMP levels (cerebellar cGMP; rats, electric shock 1 mA 10 s, doses of 0.1-10 mg/kg, dosed 30-60 min prior to foot-shock, no dose-responsiveness): ~50%; DURATION OF IMMOBILITY % change from control (Rats [1]; [10]): −37%; DURATION OF IMMOBILITY mean ± s.e.m. (Rats [1]; [10]): 133.0 ± 6.6 s; decrease in immobility time (Rats [1]; 1 mg/kg): 37%; DURATION OF IMMOBILITY % change from control (Rats [1]; [12]): −14%; DURATION OF IMMOBILITY mean ± s.e.m. (Rats [1]; [12]): 145.3 ± 26.0 NS s; effects on immobility, swimming, or climbing statistically different from vehicle (Rats [2]): did not show effects; effect of pH on aqueous solubility (Solubility of MA-1): practically unaffected by pH; solubility (Solubility of MA-1; in 95% ethanol, methanol, acetonitrile, ethyl acetate, isopropanol, polyethylene glycols (PEG-300 and PEG-400)): very soluble or freely soluble; solubility (Solubility of MA-1; in water): only slightly soluble; native pH of a saturated solution in water (Solubility of MA-1; saturated solution in water): 8.5; affinity [3]: high affinity; affinity [4]: high affinity
COc1ccc2cccc(CCNC(C)=O)c2c1 [agomelatine]				−60	84.8 ± 8.2	60	−42	97.8 ± 13.5 s	shown activity	−33	140.2 ± 19.1	+13%	191.0 ± 9.4	decrease in immobility time (Rats [1]; 50 mg/kg): 33%
COc1ccc2[nH]cc(CCNC(C)=O)c2c1 [Melatonin, melatonin]				−37	132.8 ± 16.5		−40	101.3 ± 18.8 s	shown activity	−21	166.8 ± 16.6	0%	167.7 ± 10.8	
